{"source": "paper PMC9513367", "about": "(2022)", "key": {"[1]": {"tested_on": "Apt-T2 (DNA, aptamer) CGAGGGACGTTGCCAACGATAACGTCGTTGGAT", "assay": "AuNP colorimetric (A650/A520)", "details": "NaCl 36.7 mM added, water, room temperature"}, "[2]": {"tested_on": "Apt1 (DNA, aptamer) ACACGACGAGGGACGAGGAGTACTTGCCAACGATAACGTCGTTGGATCTGTCTGTGCCC", "assay": "AuNP colorimetric (A650/A520)", "details": "NaCl 36.7 mM added, water, room temperature"}, "[3]": {"tested_on": "Apt-M13 (DNA, aptamer) CGGGGGACGTTGCCAACGGTAACGTCGTTGGAT", "assay": "AuNP colorimetric (A650/A520)", "details": "NaCl 36.7 mM added, water, room temperature"}, "[4]": {"tested_on": "Apt-T1 (DNA, aptamer) CGAGGGACGAGGAGTACTTGCCAACGATAACGTCGTTGGAT", "assay": "AuNP colorimetric (A650/A520)", "details": "NaCl 36.7 mM added, water, room temperature"}, "[5]": {"tested_on": "Apt-M13 (DNA, aptamer) CGGGGGACGTTGCCAACGGTAACGTCGTTGGAT", "assay": "fluorescence enhancement of dye", "details": "water, room temperature; aptamer 50 nM stock, 1X SGI"}, "[6]": {"tested_on": "Apt-M12 (DNA, aptamer) CGAGGGACGTTGCCAACGGTAACGTGGTTGGAT", "assay": "AuNP colorimetric (A650/A520)", "details": "NaCl 36.7 mM added; water, room temperature; DEX titration"}, "[7]": {"tested_on": "FAM-Apt1 (DNA, aptamer) ACACGACGAGGGACGAGGAGTACTTGCCAACGATAACGTCGTTGGATCTGTCTGTGCCC", "assay": "graphene oxide fluorescence, saturation fit", "details": "water, 37 °C 2 h; aptamer 10-250 nM varied, DEX 1.5 μM fixed; GO:aptamer mass 200:1"}, "[8]": {"tested_on": "Apt-M11 (DNA, aptamer) CGAGGGACGTTGCCAACGGTAAGGTCGTTGGAT", "assay": "AuNP colorimetric (A650/A520)", "details": "NaCl 36.7 mM added; water, room temperature; DEX titration"}, "[9]": {"tested_on": "FAM-Apt-M13 (DNA, aptamer) CGGGGGACGTTGCCAACGGTAACGTCGTTGGAT", "assay": "graphene oxide fluorescence, saturation fit", "details": "water, 37 °C 2 h; aptamer 10-250 nM varied, DEX 1.5 μM fixed; GO:aptamer mass 200:1"}, "[10]": {"tested_on": "Apt-M9 (DNA, aptamer) CGAGGGACGTTGGCAACGGTAACGTCGTTGGAT", "assay": "AuNP colorimetric (A650/A520)", "details": "NaCl 36.7 mM added; water, room temperature; DEX titration"}, "[11]": {"tested_on": "Apt-M15 (DNA, aptamer) CGAGGGACGTTGCCAACGATAAGGTGGTTGGAT", "assay": "AuNP colorimetric (A650/A520)", "details": "NaCl 36.7 mM added; water, room temperature; DEX titration"}, "[12]": {"tested_on": "Apt-T3 (DNA, aptamer) TTGCCAACGATAACGTCGTTGGAT", "assay": "AuNP colorimetric (A650/A520)", "details": "NaCl 36.7 mM added; water, room temperature; DEX titration"}}}
{"smiles": "CCCC1O[C@@H]2C[C@H]3[C@@H]4CCC5=CC(=O)C=C[C@]5(C)[C@H]4[C@@H](O)C[C@]3(C)[C@]2(C(=O)CO)O1", "note": "(stereo partly shown)", "values": [{"measurement": "binding", "setting": "[1]; 100 nmol/mL analog tested", "result": "no"}, {"measurement": "binding", "setting": "[2]; 100 nmol/mL analog tested", "result": "no"}, {"measurement": "binding", "setting": "[3]; 50 nmol/mL analog tested", "result": "no"}, {"measurement": "binding", "setting": "[4]; 100 nmol/mL", "result": "yes"}]}
{"smiles": "CCCN(CCCN(C)C)c1cc(C=C2Sc3ccccc3N2C)c2ccccc2[n+]1-c1ccccc1", "values": [{"measurement": "binding", "setting": "[5]", "result": "yes"}]}
{"smiles": "C[C@]12CCC(=O)C=C1CC[C@@H]1[C@@H]2[C@@H](O)C[C@@]2(C)[C@H]1CC[C@]2(O)C(=O)CO", "values": [{"measurement": "binding", "setting": "[1]; 100 nmol/mL analog tested", "result": "no"}, {"measurement": "binding", "setting": "[2]; 100 nmol/mL analog tested", "result": "no"}, {"measurement": "binding", "setting": "[3]; 50 nmol/mL analog tested", "result": "no"}]}
{"smiles": "CC(=O)OCC(=O)[C@@]1(O)CC[C@H]2[C@@H]3CCC4=CC(=O)C=C[C@]4(C)[C@H]3C(=O)C[C@@]21C", "values": [{"measurement": "binding", "setting": "[1]; 100 nmol/mL analog tested", "result": "no"}, {"measurement": "binding", "setting": "[2]; 100 nmol/mL analog tested", "result": "no"}, {"measurement": "binding", "setting": "[3]; 50 nmol/mL analog tested", "result": "no"}]}
{"smiles": "C[C@@H]1C[C@H]2[C@@H]3CCC4=CC(=O)C=C[C@]4(C)[C@@]3(F)[C@@H](O)C[C@]2(C)[C@@]1(O)C(=O)CO", "values": [{"measurement": "binding", "setting": "[6]", "result": "yes"}, {"measurement": "Kd", "setting": "[7]", "result": "441 ± 180", "unit": "nM"}, {"measurement": "binding", "setting": "[1]; DEX titration", "result": "yes"}, {"measurement": "binding", "setting": "[8]", "result": "yes"}, {"measurement": "binding", "setting": "[2]; DEX titration", "result": "yes"}, {"measurement": "Kd", "setting": "[9]", "result": "200 ± 93", "unit": "nM"}, {"measurement": "binding", "setting": "[10]", "result": "yes"}, {"measurement": "binding", "setting": "[3]; DEX titration", "result": "yes"}, {"measurement": "binding", "setting": "[11]", "result": "yes"}, {"measurement": "binding", "setting": "[12]", "result": "yes"}, {"measurement": "binding", "setting": "[4]; DEX titration", "result": "yes"}]}
{"smiles": "O=C(N[C@H](CO)[C@H](O)c1ccc([N+](=O)[O-])cc1)C(Cl)Cl", "values": [{"measurement": "binding", "setting": "[1]; 100 nmol/mL analog tested", "result": "no"}, {"measurement": "binding", "setting": "[2]; 100 nmol/mL analog tested", "result": "no"}, {"measurement": "binding", "setting": "[3]; 50 nmol/mL analog tested", "result": "no"}]}
